Assay results published in US6984649B1, “Pyridine derivatives” (Bayer Aktiengesellschaft, priority 2000, dated 2006).

target: T1, human IKK-β (Homo sapiens, UniProt O14920); assay: IKK-β kinase inhibitory assay; format: biochemical; details: compounds as yielded by solid phase synthesis, purity about 40 to 90%, read-out: In vitro activity grade (In vitro IC50)
T1 construct: A cDNA fragment encoding human IKK-β open reading frame was generated by PCR; His tag (from pcDNA3.1/His C); made in house; host or cells: Sf21 insect cells (baculovirus); substrate made in E. coli
T1 sequence (O14920 1-756): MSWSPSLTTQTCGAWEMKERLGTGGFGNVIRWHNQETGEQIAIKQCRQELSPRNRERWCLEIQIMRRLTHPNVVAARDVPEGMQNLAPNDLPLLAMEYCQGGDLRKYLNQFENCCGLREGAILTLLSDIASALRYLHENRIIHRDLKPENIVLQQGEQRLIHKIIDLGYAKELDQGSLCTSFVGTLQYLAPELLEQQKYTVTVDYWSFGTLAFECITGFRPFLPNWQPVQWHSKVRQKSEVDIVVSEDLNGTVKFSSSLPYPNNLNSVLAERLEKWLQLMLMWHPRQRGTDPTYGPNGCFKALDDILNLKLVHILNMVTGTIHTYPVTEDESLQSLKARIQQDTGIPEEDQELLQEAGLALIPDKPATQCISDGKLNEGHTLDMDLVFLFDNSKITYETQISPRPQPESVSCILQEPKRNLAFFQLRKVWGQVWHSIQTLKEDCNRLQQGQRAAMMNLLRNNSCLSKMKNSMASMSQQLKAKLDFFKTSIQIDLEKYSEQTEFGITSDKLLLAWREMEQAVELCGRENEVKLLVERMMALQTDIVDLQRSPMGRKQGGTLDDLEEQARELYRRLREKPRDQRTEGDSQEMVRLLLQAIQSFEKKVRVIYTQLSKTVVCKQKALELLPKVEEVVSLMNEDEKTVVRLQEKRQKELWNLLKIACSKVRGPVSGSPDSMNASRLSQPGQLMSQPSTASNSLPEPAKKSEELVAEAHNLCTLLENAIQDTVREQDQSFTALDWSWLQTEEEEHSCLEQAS
How it was run: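 Radiometric read-out: streptavidin capture of 33P-labelled bio-GST-IκBα(1-54), 0.2 μM, after a 2 h room-temperature reaction started with ATP/[γ-33P]ATP. Enzyme was recombinant His-tagged human IKK-β expressed in Sf21 insect cells, used at 0.6 μg/ml in Tris-HCl pH 7.6/MgCl2 kinase buffer. Compounds added in 2.5% DMSO.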

Row | Structure (SMILES) | IC50
1 | N#Cc1c(C2CCNCC2)cc(-c2ccccc2O)nc1N [Example 1-13] | < 500 nM
2 | N#Cc1c(C2CCCCN2)cc(-c2ccccc2O)nc1N (centres unmarked) [Example 1-14] | 500 to 2000 nM
3 | N#Cc1c(C2CNCCN2)cc(-c2ccccc2O)nc1N (centres unmarked) [Example 1-15] | 500 to 2000 nM
4 | Cc1cccc(-c2cc(C3CCCNC3)c(C#N)c(N)n2)c1O (centres unmarked) [Example 1-17] | 500 to 2000 nM
5 | N#Cc1c(C2CCCNC2)cc(-c2ccc(O)cc2O)nc1N (centres unmarked) [Example 1-18] | 500 to 2000 nM
6 | N#Cc1c(C2CCCNC2)cc(-c2cccc(F)c2O)nc1N (centres unmarked) [Example 1-19] | < 500 nM
7 | N#Cc1c(C2CCCNC2)cc(-c2cccc(Cl)c2O)nc1N (centres unmarked) [Example 1-20] | < 500 nM
8 | Cc1cccc(O)c1-c1cc(C2CCCNC2)c(C#N)c(N)n1 (centres unmarked) [Example 1-21] | 2000 to 10000 nM
9 | N#Cc1c(C2CCC(N)CC2)cc(-c2ccccc2O)nc1N (centres unmarked) [Example 1-22] | < 500 nM
10 | N#Cc1c(C2CCCC(N)C2)cc(-c2ccccc2O)nc1N (centres unmarked) [Example 1-23] | < 500 nM
11 | N#Cc1c([C@@H](N)Cc2ccccc2)cc(-c2ccccc2O)nc1N [Example 1-25] | < 500 nM
12 | COc1ccc(C[C@H](N)c2cc(-c3ccccc3O)nc(N)c2C#N)cc1 [Example 1-26] | < 500 nM
13 | CCCC[C@H](N)c1cc(-c2ccccc2O)nc(N)c1C#N [Example 1-28] | < 500 nM
14 | N#Cc1c([C@@H](N)CCc2ccccc2)cc(-c2ccccc2O)nc1N [Example 1-29] | 500 to 2000 nM
15 | N#Cc1c([C@@H](N)Cc2ccc(F)cc2)cc(-c2ccccc2O)nc1N [Example 1-30] | < 500 nM
16 | N#Cc1c([C@@H]2CCCN2)cc(-c2ccccc2O)nc1N [Example 1-31] | 500 to 2000 nM
17 | C[C@H](N)c1cc(-c2ccccc2O)nc(N)c1C#N [Example 1-32] | < 500 nM
18 | CC(C)[C@H](N)c1cc(-c2ccccc2O)nc(N)c1C#N [Example 1-33] | < 500 nM
19 | N#Cc1c([C@H](N)Cc2ccccc2)cc(-c2ccccc2O)nc1N [Example 1-34] | < 500 nM
20 | N#Cc1c(CC(N)c2ccccc2)cc(-c2ccccc2O)nc1N (centres unmarked) [Example 1-35] | < 500 nM
21 | CC(N)Cc1cc(-c2ccccc2O)nc(N)c1C#N (centres unmarked) [Example 1-36] | < 500 nM
22 | N#Cc1c(CCN)cc(-c2ccccc2O)nc1N [Example 1-37] | < 500 nM
23 | N#Cc1c(C2CCC(C(=O)O)CC2)cc(-c2ccccc2O)nc1N (centres unmarked) [Example 1-38] | < 500 nM
24 | CCc1cc(-c2ccccc2O)nc(N)c1C#N [Example 1-39] | 2000 to 10000 nM
25 | N#Cc1c([C@H](Cc2ccccc2)NC(=O)CCN2CCCCC2)cc(-c2ccccc2O)nc1N [Example 1-40] | 500 to 2000 nM
26 | N#Cc1c(C2CCCN(C(=O)CCN3CCCCC3)C2)cc(-c2ccccc2O)nc1N (centres unmarked) [Example 1-41] | 500 to 2000 nM
27 | CS(=O)(=O)N1CCCC(c2cc(-c3ccccc3O)nc(N)c2C#N)C1 (centres unmarked) [Example 1-42] | 2000 to 10000 nM
28 | CCCN(CCC)C1CCCC(c2cc(-c3ccccc3O)nc(N)c2C#N)C1 (centres unmarked) [Example 1-43] | < 500 nM
29 | N#Cc1c(CCO)cc(-c2ccccc2O)nc1N [Example 1-44] | 500 to 2000 nM

Next, values leading:

Row | IC50 | Structure (SMILES)
30 | < 500 nM | Cc1cccc(COc2cccc(O)c2-c2cc(C3CCCNC3)c(C#N)c(N)n2)c1 (centres unmarked) [Example 2-07]
31 | < 500 nM | Cc1ccc(COc2cccc(O)c2-c2cc(C3CCCNC3)c(C#N)c(N)n2)cc1 (centres unmarked) [Example 2-08]
32 | < 500 nM | N#Cc1c(C2CCCNC2)cc(-c2c(O)cccc2OCc2cccc(C(F)(F)F)c2)nc1N (centres unmarked) [Example 2-09]
33 | < 500 nM | N#Cc1c(C2CCCNC2)cc(-c2c(O)cccc2OCc2ccc(C(F)(F)F)cc2)nc1N (centres unmarked) [Example 2-10]
34 | < 500 nM | N#Cc1c(C2CCCNC2)cc(-c2c(O)cccc2OCc2cccc(Br)c2)nc1N (centres unmarked) [Example 2-11]
35 | < 500 nM | N#Cc1c(C2CCCNC2)cc(-c2c(O)cccc2OCc2ccccc2[N+](=O)[O-])nc1N (centres unmarked) [Example 2-12]
36 | < 500 nM | N#Cc1c(C2CCCNC2)cc(-c2c(O)cccc2OCc2cccc([N+](=O)[O-])c2)nc1N (centres unmarked) [Example 2-13]
37 | < 500 nM | N#Cc1c(C2CCCNC2)cc(-c2c(O)cccc2OCc2ccc([N+](=O)[O-])cc2)nc1N (centres unmarked) [Example 2-14]
38 | < 500 nM | N#Cc1cccc(COc2cccc(O)c2-c2cc(C3CCCNC3)c(C#N)c(N)n2)c1 (centres unmarked) [Example 2-15]
39 | < 500 nM | N#Cc1ccc(COc2cccc(O)c2-c2cc(C3CCCNC3)c(C#N)c(N)n2)cc1 (centres unmarked) [Example 2-16]
40 | < 500 nM | N#Cc1c(C2CCCNC2)cc(-c2c(O)cccc2OCc2ccccc2Cl)nc1N (centres unmarked) [Example 2-17]
41 | < 500 nM | N#Cc1c(C2CCCNC2)cc(-c2c(O)cccc2OCc2cccc(Cl)c2)nc1N (centres unmarked) [Example 2-18]
42 | < 500 nM | N#Cc1c(C2CCCNC2)cc(-c2c(O)cccc2OCc2ccc(Cl)cc2)nc1N (centres unmarked) [Example 2-19]
43 | < 500 nM | N#Cc1c(C2CCCNC2)cc(-c2c(O)cccc2OCc2c(Cl)cccc2Cl)nc1N (centres unmarked) [Example 2-20]
44 | < 500 nM | N#Cc1c(C2CCCNC2)cc(-c2c(O)cccc2OCc2ccc3ccccc3c2)nc1N (centres unmarked) [Example 2-21]
45 | < 500 nM | N#Cc1c(C2CCCNC2)cc(-c2c(O)cccc2OCCC2CCCCC2)nc1N (centres unmarked) [Example 2-61]
46 | < 500 nM | N#Cc1c(C2CCCNC2)cc(-c2c(O)cccc2OCC2CCC2)nc1N (centres unmarked) [Example 2-62]
47 | < 500 nM | CC(C)CCCOc1cccc(O)c1-c1cc(C2CCCNC2)c(C#N)c(N)n1 (centres unmarked) [Example 2-63]

Row | IC50 | Structure (SMILES)
48 | < 500 nM | CCCCCCCOc1cccc(O)c1-c1cc(C2CCCNC2)c(C#N)c(N)n1 (centres unmarked) [Example 2-64]
49 | < 500 nM | N#Cc1c(C2CCCNC2)cc(-c2c(O)cccc2OCC2CC2)nc1N (centres unmarked) [Example 2-65]
50 | < 500 nM | CC(C)CCCOc1cccc(O)c1-c1cc(C2CCNCC2)c(C#N)c(N)n1 [Example 2-66]
51 | < 500 nM | CCCOc1cccc(O)c1-c1cc(C2CCNCC2)c(C#N)c(N)n1 [Example 2-67]
52 | < 500 nM | N#Cc1c(C2CCNCC2)cc(-c2c(O)cccc2OCC2CCC2)nc1N [Example 2-68]
53 | < 500 nM | CCCCCOc1cccc(O)c1-c1cc(C2CCNCC2)c(C#N)c(N)n1 [Example 2-69]
54 | < 500 nM | N#Cc1c(C2CCNCC2)cc(-c2c(O)cccc2OCCC2CCCCC2)nc1N [Example 2-70]
55 | < 500 nM | CC(C)COc1cccc(O)c1-c1cc(C2CCNCC2)c(C#N)c(N)n1 [Example 2-71]
56 | < 500 nM | CCCCCCCOc1cccc(O)c1-c1cc(C2CCNCC2)c(C#N)c(N)n1 [Example 2-73]
57 | < 500 nM | C=CCOc1cccc(O)c1-c1cc(C2CCNCC2)c(C#N)c(N)n1 [Example 2-74]
58 | < 500 nM | CCOc1cccc(O)c1-c1cc(C2CCNCC2)c(C#N)c(N)n1 [Example 2-75]
59 | < 500 nM | CCCCCCOc1cccc(O)c1-c1cc(C2CCNCC2)c(C#N)c(N)n1 [Example 2-76]
60 | < 500 nM | CC(C)(C)C(=O)COc1cccc(O)c1-c1cc(C2CCCNC2)c(C#N)c(N)n1 (centres unmarked) [Example 2-77]
61 | < 500 nM | CC(C)(C)C(=O)COc1cccc(O)c1-c1cc(C2CCNCC2)c(C#N)c(N)n1 [Example 2-78]
62 | < 500 nM | N#Cc1c(C2CCCNC2)cc(-c2c(O)cccc2OCC2CCCCO2)nc1N (centres unmarked) [Example 2-79]
63 | < 500 nM | N#Cc1c(C2CCCNC2)cc(-c2c(O)cccc2OCC2CCCO2)nc1N (centres unmarked) [Example 2-80]
64 | < 500 nM | N#Cc1c(C2CCCNC2)cc(-c2c(O)cccc2OCC2CCCO2)nc1N (centres unmarked) [Example 2-81]
65 | < 500 nM | N#Cc1c(C2CCNCC2)cc(-c2c(O)cccc2OCC2CCCO2)nc1N (centres unmarked) [Example 2-82]
